The nature of series [1]: Franz diffusion cell skin drug permeation through cadaver skin, 24 hour period, HPLC. The series is classed as in vitro ADME. To be noted: for Flux: cadaver skin; for Skin Flux: Table 4 (examples). The procedure: As a way of measuring the skin drug permeation properties of the COX-2 inhibitors, a Franz diffusion cell was provided utilizing cadaver skin as the membrane and a 1% Tween 80 solution as the receptor phase. Frozen cadaver skin was thawed at room temperature and punched with a 20 mm puncher. The receptor compartment of the Franz diffusion cell was filled with 1% Tween 80 solution and the diffusion cells maintained at 32° C. A 6% polyethylene glycol-20-oleyl ether is also suitable as a receptor fluid. The skin was mounted on the receptor, covered with the cup and fastened by a clamp. The air bubbles were removed from the receptor fluid and it was allowed to equilibrate for 30 minutes. COX-2 pharmaceutical compositions, according to the present invention, were brought into contact with the cadaver skin and the amount of drug which permeated through the cadaver skin in a 24 hour period was determined by high performance liquid chromatography.

Series [2] can be described thus: Solubility of the drug in vehicles (drug saturated solutions). It is filed as physicochemical.
The mark [3] stands for this setting: Table 1, drug saturated solution, vehicle 70% EtOH, 32° C.
Where [4] appears, read: Table 1, drug saturated solution, vehicle EtOH.
The mark [5] stands for this setting: Table 6 (examples), Saturated Cb in 5% Pb, 67% EtOH.
The mark [6] stands for this setting: Table 6 (examples), Saturated Vb in 5% Pb, 67% EtOH.

Molecules are shown by their SMILES. Converted amounts (≈) assume the structure as drawn. Read-outs that look alike come from different tables or passages of the source.

As usually defined, the solubility is how much of the substance goes into solution per volume. `Cc1ccc(-c2cc(C(F)(F)F)nn2-c2ccc(S(N)(=O)=O)cc2)cc1` [Celecoxib, celecoxib]: the Flux in series [1] (setting [3]) was 15.7 μg/cm^2 · day; in series [1] (setting [4]), 5.62 μg/cm^2 · day; in series [1] (setting [5]) it was 183 ± 153 μg/cm^2 · day. Moreover, the solubility in series [2] (70% aqueous ethanol, aqueous with cosolvent or surfactant or cyclodextrin, thermodynamic from solid, Table 1, drug saturated solution, vehicle 70% EtOH, read-out: Solubility) turned out to be 15.2 mg/mL (≈ 39.9 mM); in series [2] (Table 2, 70% aqueous ethanol solution), 15.2 mg/mL (≈ 39.9 mM); in series [2] (ethanol, organic solvent or mixture, thermodynamic from solid, Table 1, drug saturated solution, vehicle EtOH, read-out: Solubility) it was 91.4 mg/mL (≈ 240 mM); in series [2] (polyethylene glycol 400, organic solvent or mixture, thermodynamic from solid, Table 1, drug saturated solution, vehicle PEG 400, read-out: Solubility) it was 297 mg/mL (≈ 779 mM); in series [2] (propylene glycol, organic solvent or mixture, thermodynamic from solid, Table 1, drug saturated solution, vehicle PG, read-out: Solubility), 33.3 mg/mL (≈ 87.3 mM).

On to `CCC(=O)NS(=O)(=O)c1ccc(-c2c(-c3ccccc3)noc2C)cc1` [Parecoxib, parecoxib], for which the results for the Flux in series [1] (setting [5]) and in series [1] (setting [6]) were 74.7 ± 14.7 μg/cm^2 · day and 64.1 ± 11.3 μg/cm^2 · day, respectively. In addition, the “Effect as permeation enhancer on transdermal delivery of selective COX-2 drugs across the skin” value in series [1] (parecoxib used as permeation enhancer) is “increase the transdermal delivery”. In series [2] (aqueous with cosolvent or surfactant or cyclodextrin, thermodynamic from solid), this compound yielded a solubility of 386 mg/mL (≈ 1040 mM).

For the compound `Cc1onc(-c2ccccc2)c1-c1ccc(S(N)(=O)=O)cc1` [Valdecoxib, valdecoxib], the values for the Flux in series [1] (setting [3]), in series [1] (setting [4]) and in series [1] (setting [6]) were 12.8 μg/cm^2 · day, 1.44 μg/cm^2 · day and 108 ± 16.7 μg/cm^2 · day, respectively. Besides, the “Skin Flux” value worked out at 302 ± 48.9 μg/cm^2 · day in series [1] (% w/w: water 30, ethanol 30, isopropanol 10, 1,3-butanediol 22, oleyl alcohol 5, thymol 3); 441 ± 160 μg/cm^2 · day in series [1] (% w/w: water 30, ethanol 62, oleyl alcohol 5, thymol 3); 287 ± 23.9 μg/cm^2 · day in series [1] (% w/w: water 33, ethanol 62, oleyl alcohol 5).

The record behind these values is US20030211163A1, “Combination antiviral therapy” (priority 2002, published 2003).
